The values that follow come from patent US20250197374A1, “WEE1 DEGRADING COMPOUNDS AND USES THEREOF” (BRISTOL-MYERS SQUIBB COMPANY, priority 2023, published 2025).

What all share (assay type): cell-based
The subject of assay [1] is MDA-MB-231 cells. Nature of the assay: MDA-MB-231 cell proliferation assay (Cell-Titer-Glo, 120 hr). To be noted: for EC50: Homo sapiens, MDA-MB-231, 120 h, read-out: MDA-MB 231 Cell Prolif. 120 hr EC50; for MDA-MB 231 Cell Prolif. 120 hr YMin (%): minimal percent of DMSO control observed. In a few lines:
(§1)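 MKN45 (400/well) and MDA-MB-231 (800/well) cells in RPMI with 10% FBS were exposed to 10-point half-log doses from 1 or 10 uM (0.1% DMSO) for 120 h at 37 °C. Viability was read by CellTiter-Glo luminescence. EC50 came from blank-subtracted, %DMSO four-parameter fits, with Ymin-obs as the lowest %DMSO observed.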

The test system of assay [2] is MKN45 cells. Briefly: MKN45 cell proliferation assay (Cell-Titer-Glo, 120 hr). The following applies: for EC50: Homo sapiens, MKN-45, 120 h, read-out: MKN45 Cell Prolif. 120 hr EC50; for MKN45 Cell Prolif. 120 hr YMin (%): minimal percent of DMSO control observed. In a few lines: as §1
Assay [3] concerns the target T1, WEE1 (Homo sapiens, UniProt P30291+Q96SW2).
T1 construct: C-terminal ePL-tagged (DiscoverX, Fremont, CA) full-length WEE1 expression construct; expressed in transfected cells; host or cells: LentiX-HEK293T (Invitrogen), lentivirally transduced; the cells also over-express GSPT1-GN
Nature of the assay: WEE1-ePL degradation assay (293T-LentiX, InCELL Hunter luminescence, 4 hr). To be noted: for DC50: LentiX-HEK293T cells expressing WEE1-ePL, 4 hr incubation, read-out: 293T-LentiX WEE1-ePL Degradation 4 hr EC50; for 293T-LentiX WEE1-ePL Degradation 4 hr YMin (%): lower limit of fit, % of DMSO control signal remaining. The method, boiled down: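 LentiX-HEK293T cells expressing C-terminally ePL-tagged full-length WEE1 plus non-degradable GSPT1-GN (G575N, N-terminal 158 aa truncated). Treated 4 h at 37 °C with a 10-point, 3-fold series from 1 or 10 µM, then read by InCELL Hunter luminescence. EC50 from four-parameter logistic fit, Ymax set by DMSO control.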

T1 sequence (P30291 whole entry): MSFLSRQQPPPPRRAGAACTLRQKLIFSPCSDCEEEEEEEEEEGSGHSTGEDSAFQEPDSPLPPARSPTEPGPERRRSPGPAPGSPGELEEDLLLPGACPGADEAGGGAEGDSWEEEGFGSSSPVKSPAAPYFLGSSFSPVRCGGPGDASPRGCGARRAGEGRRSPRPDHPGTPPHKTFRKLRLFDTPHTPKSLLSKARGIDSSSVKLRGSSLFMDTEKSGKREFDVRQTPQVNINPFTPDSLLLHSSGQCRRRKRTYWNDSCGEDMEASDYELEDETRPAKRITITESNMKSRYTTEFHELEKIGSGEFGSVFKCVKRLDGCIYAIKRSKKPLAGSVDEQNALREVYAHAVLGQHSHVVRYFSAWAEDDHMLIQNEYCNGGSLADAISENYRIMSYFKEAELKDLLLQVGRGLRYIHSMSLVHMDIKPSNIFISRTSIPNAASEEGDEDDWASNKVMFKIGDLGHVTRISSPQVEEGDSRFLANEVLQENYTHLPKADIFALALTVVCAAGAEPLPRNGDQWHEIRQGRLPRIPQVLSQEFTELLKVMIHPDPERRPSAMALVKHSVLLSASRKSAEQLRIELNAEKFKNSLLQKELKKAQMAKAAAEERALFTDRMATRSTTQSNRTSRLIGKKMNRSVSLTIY
T1 sequence (Q96SW2 whole entry): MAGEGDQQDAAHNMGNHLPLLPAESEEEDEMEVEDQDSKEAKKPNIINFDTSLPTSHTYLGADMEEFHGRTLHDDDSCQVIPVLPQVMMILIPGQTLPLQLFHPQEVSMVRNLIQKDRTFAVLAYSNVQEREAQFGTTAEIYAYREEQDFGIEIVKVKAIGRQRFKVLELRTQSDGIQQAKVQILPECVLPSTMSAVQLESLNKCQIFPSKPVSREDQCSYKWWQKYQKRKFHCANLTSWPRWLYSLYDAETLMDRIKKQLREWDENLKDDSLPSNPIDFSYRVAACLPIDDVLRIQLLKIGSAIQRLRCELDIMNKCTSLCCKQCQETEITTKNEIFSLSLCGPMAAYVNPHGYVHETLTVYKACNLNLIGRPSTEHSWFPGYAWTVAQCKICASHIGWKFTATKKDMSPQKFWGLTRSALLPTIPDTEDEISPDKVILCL
T1 sequence (Q16531 whole entry partner): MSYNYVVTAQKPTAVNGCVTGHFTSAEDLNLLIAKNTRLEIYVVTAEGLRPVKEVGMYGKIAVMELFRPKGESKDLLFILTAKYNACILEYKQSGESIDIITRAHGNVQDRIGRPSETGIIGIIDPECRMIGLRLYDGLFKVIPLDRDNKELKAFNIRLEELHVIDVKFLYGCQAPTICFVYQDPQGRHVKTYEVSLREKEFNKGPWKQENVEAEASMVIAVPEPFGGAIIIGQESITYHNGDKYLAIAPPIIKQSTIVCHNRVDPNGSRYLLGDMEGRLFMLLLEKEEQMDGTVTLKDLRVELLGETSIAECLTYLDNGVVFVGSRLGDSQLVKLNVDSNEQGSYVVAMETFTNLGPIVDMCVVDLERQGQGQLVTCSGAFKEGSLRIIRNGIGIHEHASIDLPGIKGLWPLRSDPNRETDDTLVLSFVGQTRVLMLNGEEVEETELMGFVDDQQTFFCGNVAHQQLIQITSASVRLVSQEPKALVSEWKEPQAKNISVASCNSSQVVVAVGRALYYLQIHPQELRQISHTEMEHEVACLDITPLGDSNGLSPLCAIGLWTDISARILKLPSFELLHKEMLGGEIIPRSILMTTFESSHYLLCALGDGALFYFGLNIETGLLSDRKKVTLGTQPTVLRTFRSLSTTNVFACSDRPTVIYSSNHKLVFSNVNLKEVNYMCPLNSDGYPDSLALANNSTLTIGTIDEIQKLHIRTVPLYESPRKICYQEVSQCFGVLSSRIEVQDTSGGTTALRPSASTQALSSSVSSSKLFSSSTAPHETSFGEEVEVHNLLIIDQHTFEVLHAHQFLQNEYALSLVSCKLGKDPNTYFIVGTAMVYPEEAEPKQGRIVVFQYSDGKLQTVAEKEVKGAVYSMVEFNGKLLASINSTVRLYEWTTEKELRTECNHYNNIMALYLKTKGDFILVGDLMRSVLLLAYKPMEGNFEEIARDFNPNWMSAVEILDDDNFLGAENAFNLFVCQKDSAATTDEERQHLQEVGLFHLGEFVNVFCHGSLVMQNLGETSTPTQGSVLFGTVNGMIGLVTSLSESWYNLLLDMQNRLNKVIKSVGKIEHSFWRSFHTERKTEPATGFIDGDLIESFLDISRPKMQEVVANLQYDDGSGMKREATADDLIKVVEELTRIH

`COC[C@@H]1CN(Cc2cc(F)c3nc(N4CCN(C(C)=O)C5(CC5)C4)ncc3c2)C[C@H]1Oc1ccc2c(c1)CN([C@H]1CCC(=O)NC1=O)C2=O` [Example 85, (3S)-3-(5-{[(3S,4S)-1-[(2-{4-acetyl-4,7-diazaspiro[2.5]octan-7-yl}-8-fluoroquinazolin-6-yl)methyl]-4-(methoxymethyl)pyrrolidin-3-yl]oxy}-1-oxo-2,3-dihydro-1H-isoindol-2-yl)piperidine-2,6-dione]: in assay [1], the EC50 (as a rule, the concentration that produces a half-maximal response) was 22 nM and the “MDA-MB 231 Cell Prolif. 120 hr YMin (%)” value turned out to be 16.6%. In addition, in assay [2], the EC50 worked out at 1 nM and the “MKN45 Cell Prolif. 120 hr YMin (%)” value was found to be 11.1%. In assay [3], the DC50 came out at 1 nM and the “293T-LentiX WEE1-ePL Degradation 4 hr YMin (%)” value was found to be 27.9%.
Regarding `COC[C@@H]1CN(Cc2cc(F)c3nc(N4CCN(C(C)=O)C5(COC5)C4)ncc3c2)C[C@H]1Oc1ccc2c(c1)CN([C@H]1CCC(=O)NC1=O)C2=O` [Example 86, (S)-3-(5-(((3S,4S)-1-((2-(5-acetyl-2-oxa-5,8-diazaspiro[3.5]nonan-8-yl)-8-fluoroquinazolin-6-yl)methyl)-4-(methoxymethyl)pyrrolidin-3-yl)oxy)-1-oxoisoindolin-2-yl)piperidine-2,6-dione], in assay [1], the EC50 stood at 51 nM and the “MDA-MB 231 Cell Prolif. 120 hr YMin (%)” value is on record as 18.4%. Also, in assay [2], the EC50 came out at 2 nM and the “MKN45 Cell Prolif. 120 hr YMin (%)” value was 16.9%. Moreover, in assay [3], the DC50 was found to be 3 nM and the “293T-LentiX WEE1-ePL Degradation 4 hr YMin (%)” value is 28.5%.
On to `COC[C@@H]1CN(Cc2cc3ccc(N4CCN(C(C)=O)C5(COC5)C4)cc3cn2)C[C@H]1Oc1ccc2c(c1)CN([C@H]1CCC(=O)NC1=O)C2=O` [Example 87, (3S)-3-(5-{[(3S,4S)-1-[(7-{5-acetyl-2-oxa-5,8-diazaspiro[3.5]nonan-8-yl}isoquinolin-3-yl)methyl]-4-(methoxymethyl)pyrrolidin-3-yl]oxy}-1-oxo-2,3-dihydro-1H-isoindol-2-yl)piperidine-2,6-dione], for which, in assay [1], the EC50 amounted to 112 nM and the “MDA-MB 231 Cell Prolif. 120 hr YMin (%)” value was 31.8%. Also, in assay [2], the EC50 amounted to 7 nM and the “MKN45 Cell Prolif. 120 hr YMin (%)” value was found to be 9.7%. In assay [3], the DC50 was 11 nM and the “293T-LentiX WEE1-ePL Degradation 4 hr YMin (%)” value is recorded as 32.2%.
Turning to `COC[C@@H]1CN(Cc2cc3ccc(N4CCN(C(C)=O)C5(CC5)C4)cc3cn2)C[C@H]1Oc1ccc2c(c1)CN([C@H]1CCC(=O)NC1=O)C2=O` [Example 88, (3S)-3-(5-{[(3S,4S)-1-[(7-{4-acetyl-4,7-diazaspiro[2.5]octan-7-yl}isoquinolin-3-yl)methyl]-4-(methoxymethyl)pyrrolidin-3-yl]oxy}-1-oxo-2,3-dihydro-1H-isoindol-2-yl)piperidine-2,6-dione], in assay [1], the EC50 was 11 nM and the “MDA-MB 231 Cell Prolif. 120 hr YMin (%)” value was determined as 13.1%. For the same compound, in assay [2], the 50% effective concentration (EC50) came to 1 nM and the “MKN45 Cell Prolif. 120 hr YMin (%)” value stood at 9.1%. Moreover, in assay [3], the DC50 turned out to be 3 nM and the “293T-LentiX WEE1-ePL Degradation 4 hr YMin (%)” value came out at 28.3%.
With `COC[C@@H]1CN(Cc2ccc3nc(N4CCN(C(C)=O)C5(CC5)C4)ccc3c2)C[C@H]1Oc1ccc2c(c1)CN([C@H]1CCC(=O)NC1=O)C2=O` [Example 89, (3S)-3-(5-{[(3S,4S)-1-[(2-{4-acetyl-4,7-diazaspiro[2.5]octan-7-yl}quinolin-6-yl)methyl]-4-(methoxymethyl)pyrrolidin-3-yl]oxy}-1-oxo-2,3-dihydro-1H-isoindol-2-yl)piperidine-2,6-dione], in assay [1], the EC50 amounted to 9 nM and the “MDA-MB 231 Cell Prolif. 120 hr YMin (%)” value is reported as 16.8%. In addition, in assay [2], the EC50 was found to be 1 nM and the “MKN45 Cell Prolif. 120 hr YMin (%)” value stood at 8.4%. Besides, in assay [3], the DC50 was found to be 1 nM and the “293T-LentiX WEE1-ePL Degradation 4 hr YMin (%)” value is 30.2%.
With `COC[C@@H]1CN(Cc2ccc3nc(N4CCN(C(C)=O)C5(COC5)C4)ccc3c2)C[C@H]1Oc1ccc2c(c1)CN([C@H]1CCC(=O)NC1=O)C2=O` [Example 90, (3S)-3-(5-{[(3S,4S)-1-[(2-{5-acetyl-2-oxa-5,8-diazaspiro[3.5]nonan-8-yl}quinolin-6-yl)methyl]-4-(methoxymethyl)pyrrolidin-3-yl]oxy}-1-oxo-2,3-dihydro-1H-isoindol-2-yl)piperidine-2,6-dione], in assay [1], the EC50 is 42 nM and the “MDA-MB 231 Cell Prolif. 120 hr YMin (%)” value is reported as 27.2%. Moreover, in assay [2], the EC50 is 2 nM and the “MKN45 Cell Prolif. 120 hr YMin (%)” value is on record as 6.4%. Moreover, in assay [3], the DC50 was 1 nM and the “293T-LentiX WEE1-ePL Degradation 4 hr YMin (%)” value was 21.0%.
Take `COC[C@@H]1CN(Cc2cc(F)c3nc(C4CCOC(C)(C)C4)ncc3c2)C[C@H]1Oc1ccc2c(c1)CN([C@H]1CCC(=O)NC1=O)C2=O` (stereo partly drawn) [Example 91, (3S)-3-(5-{[(3S,4S)-1-{[2-(2,2-dimethyloxan-4-yl)-8-fluoroquinazolin-6-yl]methyl}-4-(methoxymethyl)pyrrolidin-3-yl]oxy}-1-oxo-2,3-dihydro-1H-isoindol-2-yl)piperidine-2,6-dione]: in assay [1], the EC50 turned out to be 105 nM and the “MDA-MB 231 Cell Prolif. 120 hr YMin (%)” value is 9.6%. In assay [2], the EC50 turned out to be 2 nM and the “MKN45 Cell Prolif. 120 hr YMin (%)” value is on record as 10.5%. For the same compound, in assay [3], the DC50 is 4 nM and the “293T-LentiX WEE1-ePL Degradation 4 hr YMin (%)” value came out at 27.1%.
`COC[C@@H]1CN(Cc2cc(F)c3nc(N4CCN(C(C)=O)C5(CC5)C4)ccc3c2)C[C@H]1Oc1ccc2c(c1)CN([C@H]1CCC(=O)NC1=O)C2=O` [Example 92, (3S)-3-(5-{[(3S,4S)-1-[(2-{4-acetyl-4,7-diazaspiro[2.5]octan-7-yl}-8-fluoroquinolin-6-yl)methyl]-4-(methoxymethyl)pyrrolidin-3-yl]oxy}-1-oxo-2,3-dihydro-1H-isoindol-2-yl)piperidine-2,6-dione]: in assay [1], the EC50 was found to be 14 nM and the “MDA-MB 231 Cell Prolif. 120 hr YMin (%)” value is recorded as 21.4%. For the same compound, in assay [2], the EC50 came out at 1 nM and the “MKN45 Cell Prolif. 120 hr YMin (%)” value is listed as 10.9%. For the same compound, in assay [3], the DC50 was 1 nM and the “293T-LentiX WEE1-ePL Degradation 4 hr YMin (%)” value was 28.7%.
Take `COC[C@@H]1CN(Cc2cc(F)c3nc(N4CCN(C(C)=O)C5(COC5)C4)ccc3c2)C[C@H]1Oc1ccc2c(c1)CN([C@H]1CCC(=O)NC1=O)C2=O` [Example 93, (3S)-3-(5-{[(3S,4S)-1-[(2-{5-acetyl-2-oxa-5,8-diazaspiro[3.5]nonan-8-yl}-8-fluoroquinolin-6-yl)methyl]-4-(methoxymethyl)pyrrolidin-3-yl]oxy}-1-oxo-2,3-dihydro-1H-isoindol-2-yl)piperidine-2,6-dione]: in assay [1], the EC50 stood at 69 nM and the “MDA-MB 231 Cell Prolif. 120 hr YMin (%)” value was determined as 52.5%. In assay [2], the EC50 was found to be 1 nM and the “MKN45 Cell Prolif. 120 hr YMin (%)” value worked out at 7.9%. Further, in assay [3], the DC50 worked out at 1 nM and the “293T-LentiX WEE1-ePL Degradation 4 hr YMin (%)” value is 21.9%.
With `COC[C@@H]1CN(Cc2ccc3nc(N4CCN(C(C)=O)C5(CC5)C4)ncc3c2)C[C@H]1Oc1ccc2c(c1)CN([C@H]1CCC(=O)NC1=O)C2=O` [Example 94, (3S)-3-(5-{[(3S,4S)-1-[(2-{4-acetyl-4,7-diazaspiro[2.5]octan-7-yl}quinazolin-6-yl)methyl]-4-(methoxymethyl)pyrrolidin-3-yl]oxy}-1-oxo-2,3-dihydro-1H-isoindol-2-yl)piperidine-2,6-dione], in assay [1], the EC50 came out at 16 nM and the “MDA-MB 231 Cell Prolif. 120 hr YMin (%)” value was 16.0%. Also, in assay [2], the EC50 amounted to 2 nM and the “MKN45 Cell Prolif. 120 hr YMin (%)” value is given as 8.5%. For the same compound, in assay [3], the DC50 is 1 nM and the “293T-LentiX WEE1-ePL Degradation 4 hr YMin (%)” value amounted to 26.4%.
With `COC[C@@H]1CN(Cc2ccc3cc(N4CCOCC4)cnc3c2)C[C@H]1Oc1ccc2c(c1)CN([C@H]1CCC(=O)NC1=O)C2=O` [Example 102, (3S)-3-(5-{[(3S,4S)-4-(methoxymethyl)-1-{[3-(morpholin-4-yl)quinolin-7-yl]methyl}pyrrolidin-3-yl]oxy}-1-oxo-2,3-dihydro-1H-isoindol-2-yl)piperidine-2,6-dione], in assay [1], the EC50 came to 1020 nM and the “MDA-MB 231 Cell Prolif. 120 hr YMin (%)” value is 90.7%. Also, in assay [2], the EC50 is 145 nM and the “MKN45 Cell Prolif. 120 hr YMin (%)” value stood at 49.6%. In assay [3], the DC50 turned out to be 3 nM and the “293T-LentiX WEE1-ePL Degradation 4 hr YMin (%)” value was found to be 43.7%.
For the compound `COC[C@@H]1CN(Cc2cc(F)c3cc(N4CCOCC4)cnc3c2)C[C@H]1Oc1ccc2c(c1)CN([C@H]1CCC(=O)NC1=O)C2=O` [Example 103, (3S)-3-(5-{[(3S,4S)-1-{[5-fluoro-3-(morpholin-4-yl)quinolin-7-yl]methyl}-4-(methoxymethyl)pyrrolidin-3-yl]oxy}-1-oxo-2,3-dihydro-1H-isoindol-2-yl)piperidine-2,6-dione], in assay [1], the EC50 was found to be 5 nM and the “MDA-MB 231 Cell Prolif. 120 hr YMin (%)” value turned out to be 82.3%. In assay [2], the EC50 came to 29 nM and the “MKN45 Cell Prolif. 120 hr YMin (%)” value was 28.5%. Moreover, in assay [3], the DC50 worked out at 1 nM and the “293T-LentiX WEE1-ePL Degradation 4 hr YMin (%)” value came out at 32.3%.
